Experimental data published in ChEMBL document CHEMBL1201862, “PubChem BioAssay data set” (2004).
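Method: 48-hour compound exposure of cells in 96-well plates, five concentrations, linear interpolation of endpoints. GI50 is the concentration that inhibits growth by half.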 Activity calls are given as the source filed them. Rule as the data show it: active = GI50 up to about 1.1 µM and inactive = higher. Square brackets hold non-standard residues; d marks the D form. Peptide text beside a SMILES is read from it. Ac5c = NC1(C(=O)O)CCCC1

Assays:
Assay in all cases: NCI-60 cell line screen, 48 h
KM12 = system: KM12
NCI-H23 = system: NCI-H23
SN12C = system: SN12C
U-251 = system: U-251
A498 = system: A498
ACHN = system: ACHN
COLO 205 = system: COLO 205
RXF 393 = system: RXF 393
SK-OV-3 = system: SK-OV-3
TK-10 = system: TK-10
UACC-257 = system: UACC-257
A549 = system: A549
HCT-15 = system: HCT-15
SF-268 = system: SF-268
OVCAR-4 = system: OVCAR-4
HCT-116 = system: HCT-116
HOP-62 = system: HOP-62
MDA-MB-231 = system: MDA-MB-231
NCI-H522 = system: NCI-H522
CCRF-CEM = system: CCRF-CEM

Structure (SMILES)	GI50 (KM12)	GI50 (NCI-H23)	GI50 (SN12C)	GI50 (U-251)	GI50 (A498)	GI50 (ACHN)	GI50 (COLO 205)	GI50 (RXF 393)	GI50 (SK-OV-3)	GI50 (TK-10)	GI50 (UACC-257)	GI50 (A549)	GI50 (HCT-15)	GI50 (SF-268)	GI50 (OVCAR-4)	GI50 (HCT-116)	GI50 (HOP-62)	GI50 (MDA-MB-231)	GI50 (NCI-H522)	GI50 (CCRF-CEM)
C=CCSc1nc2ccccc2c(=O)n1Cc1ccco1	> 100 µM (inactive)	94.8 µM (inactive)	> 100 µM (inactive)	> 100 µM (inactive)	> 100 µM (inactive)	> 100 µM (inactive)	> 100 µM (inactive)	35.6 µM (inactive)	> 100 µM (inactive)	> 100 µM (inactive)	> 100 µM (inactive)	78.9 µM (inactive)	64.1 µM	> 100 µM (inactive)	80.5 µM (inactive)	82 µM (inactive)	> 100 µM (inactive)	> 100 µM (inactive)	61.8 µM (inactive)	–
CC1(CCC2C=CCC2)CCCNC1=S (stereo not drawn)	> 10 µM (inactive)	> 10 µM (inactive)	> 10 µM (inactive)	> 10 µM (inactive)	> 10 µM (inactive)	> 10 µM (inactive)	–	> 10 µM (inactive)	> 10 µM (inactive)	> 10 µM (inactive)	> 10 µM (inactive)	> 10 µM (inactive)	> 10 µM	> 10 µM (inactive)	–	> 10 µM (inactive)	> 10 µM (inactive)	> 10 µM (inactive)	–	> 10 µM (inactive)
CC(C)=CCc1cc2c(cc1O)OC[C@H]1c3cc4c(cc3O[C@@H]21)OCO4	39.6 µM (inactive)	33.2 µM (inactive)	> 10 µM (inactive)	37.5 µM (inactive)	–	42.4 µM (inactive)	> 100 µM (inactive)	21.4 µM (inactive)	> 100 µM (inactive)	39.8 µM (inactive)	45.3 µM (inactive)	80.4 µM (inactive)	35.8 µM	56.6 µM (inactive)	37.4 µM (inactive)	17.1 µM (inactive)	91.6 µM (inactive)	40.3 µM (inactive)	32.6 µM (inactive)	26.4 µM (inactive)
CC1CCC2C(C)C(=O)OC2C2(C)C(=O)C=CC12 (stereo not drawn)	> 10 µM (inactive)	> 10 µM (inactive)	> 10 µM (inactive)	> 10 µM (inactive)	–	> 10 µM (inactive)	> 10 µM (inactive)	> 10 µM (inactive)	> 10 µM (inactive)	> 10 µM (inactive)	> 10 µM (inactive)	> 10 µM (inactive)	> 10 µM	> 10 µM (inactive)	> 10 µM (inactive)	7.76 µM (inactive)	> 10 µM (inactive)	> 10 µM (inactive)	2.83 µM (inactive)	3.92 µM (inactive)
NC(=O)C(c1ccccc1)N1OC2C(=O)N(c3cccc4ccccc34)C(=O)C2C1c1c2ccccc2c(Cl)c2ccccc12 (stereo not drawn)	1.59 µM (inactive)	9.2 µM (inactive)	8.47 µM (inactive)	7.57 µM (inactive)	14.6 µM (inactive)	8.91 µM (inactive)	7.85 µM (inactive)	6.81 µM (inactive)	19 µM (inactive)	10.4 µM (inactive)	5.18 µM (inactive)	13.9 µM (inactive)	4.21 µM	9.1 µM (inactive)	9.93 µM (inactive)	1.23 µM (inactive)	11 µM (inactive)	9.25 µM (inactive)	10.1 µM (inactive)	–
Cn1c(NNc2ccccc2)cc(=O)[nH]c1=O	15.2 µM (inactive)	> 100 µM (inactive)	> 100 µM (inactive)	53.5 µM (inactive)	–	4.25 µM (inactive)	36.9 µM (inactive)	61.8 µM (inactive)	72.6 µM (inactive)	> 100 µM (inactive)	95.7 µM (inactive)	37.7 µM (inactive)	16.3 µM	34.1 µM (inactive)	55.8 µM (inactive)	42.5 µM (inactive)	> 100 µM (inactive)	28.9 µM (inactive)	19.1 µM (inactive)	20.6 µM (inactive)
COc1cccc(C=C2N=C(C)N(n3c(-c4ccccc4)nc4ccccc4c3=O)C2=O)c1	> 100 µM (inactive)	> 100 µM (inactive)	> 100 µM (inactive)	–	> 100 µM (inactive)	> 100 µM (inactive)	> 100 µM (inactive)	–	> 100 µM (inactive)	> 100 µM (inactive)	> 100 µM (inactive)	> 100 µM (inactive)	77.1 µM	> 100 µM (inactive)	–	> 100 µM (inactive)	> 100 µM (inactive)	> 100 µM (inactive)	> 100 µM (inactive)	57.5 µM (inactive)
CC(C)(C)COC1C2(OCCO2)C2CCC1(C)C2(C)C (stereo not drawn)	20 µM (inactive)	52.5 µM (inactive)	–	18 µM (inactive)	> 100 µM (inactive)	20.4 µM (inactive)	28.6 µM (inactive)	19.6 µM (inactive)	66.2 µM (inactive)	> 100 µM (inactive)	24.9 µM (inactive)	23.6 µM (inactive)	22.4 µM	50.2 µM (inactive)	45 µM (inactive)	–	22.1 µM (inactive)	31.8 µM (inactive)	–	18.8 µM (inactive)
CCCC1NC(=O)C(CC(C)C)NC(=O)c2cccc(n2)C(=O)NC(CC(C)C)C(=O)NC(CCC)C(=O)NC(C(=O)OC)CCCCNC1=O (stereo not drawn)	27.3 µM (inactive)	47.9 µM (inactive)	34.4 µM (inactive)	32.4 µM (inactive)	> 100 µM (inactive)	–	40.6 µM (inactive)	31.8 µM (inactive)	27.2 µM (inactive)	57.8 µM (inactive)	54.5 µM (inactive)	> 100 µM (inactive)	> 100 µM	28.2 µM (inactive)	38.8 µM (inactive)	34 µM (inactive)	81.3 µM (inactive)	18.7 µM (inactive)	–	15.6 µM (inactive)
COc1ccc(C23OCC(Cc4cc(OC)c(OC)cc42)C3CO)cc1OC (stereo not drawn)	> 100 µM (inactive)	> 100 µM (inactive)	–	> 100 µM (inactive)	> 100 µM (inactive)	> 100 µM (inactive)	> 100 µM (inactive)	> 100 µM (inactive)	> 100 µM (inactive)	> 100 µM (inactive)	–	> 100 µM (inactive)	> 100 µM	–	> 100 µM (inactive)	> 100 µM (inactive)	> 100 µM (inactive)	> 100 µM (inactive)	> 100 µM (inactive)	–
COC(=O)c1ccccc1CC1Cc2cccc(C)c2C1=O (stereo not drawn)	27 µM (inactive)	57.5 µM (inactive)	50.5 µM (inactive)	33 µM (inactive)	–	34.8 µM (inactive)	20.3 µM (inactive)	24.7 µM (inactive)	38.9 µM (inactive)	21.3 µM (inactive)	34 µM (inactive)	51.8 µM (inactive)	24 µM	37.8 µM (inactive)	27.7 µM (inactive)	23.8 µM (inactive)	> 100 µM (inactive)	51.5 µM (inactive)	24.8 µM (inactive)	36.8 µM (inactive)
COc1cc(/C=C2/SC(c3ccccc3)N(c3ccc(NC(C)=O)cc3)C2=O)cc(OC)c1OC (stereo not drawn)	91.4 µM (inactive)	> 100 µM (inactive)	> 100 µM (inactive)	> 100 µM (inactive)	> 100 µM (inactive)	> 100 µM (inactive)	> 100 µM (inactive)	64.4 µM (inactive)	> 100 µM (inactive)	> 100 µM (inactive)	> 100 µM (inactive)	> 100 µM (inactive)	> 100 µM	75.2 µM (inactive)	> 100 µM (inactive)	> 100 µM (inactive)	> 100 µM (inactive)	> 100 µM (inactive)	28.1 µM (inactive)	–
COc1cc2c(c(OC)c1)/C(=C/Sc1ccccc1)C(=O)N(C(C)(C)C)C2	24.3 µM (inactive)	26.3 µM (inactive)	24 µM (inactive)	29.8 µM (inactive)	32.4 µM (inactive)	35.3 µM (inactive)	26.2 µM (inactive)	–	14.2 µM (inactive)	54.6 µM (inactive)	30.6 µM (inactive)	–	30.3 µM	14.1 µM (inactive)	33.1 µM (inactive)	16.4 µM (inactive)	27.5 µM (inactive)	23.4 µM (inactive)	–	29.2 µM (inactive)
NCC(=O)NC1(C(=O)O)CCCC1 (H-Gly-[Ac5c]-OH)	> 100 µM (inactive)	> 100 µM (inactive)	> 100 µM (inactive)	> 100 µM (inactive)	> 100 µM (inactive)	> 100 µM (inactive)	> 100 µM (inactive)	> 100 µM (inactive)	> 100 µM (inactive)	> 100 µM (inactive)	> 100 µM (inactive)	> 100 µM (inactive)	> 100 µM	> 100 µM (inactive)	> 100 µM (inactive)	> 100 µM (inactive)	> 100 µM (inactive)	> 100 µM (inactive)	> 100 µM (inactive)	–
O=C(NCCN(CCNC(=O)c1cccc(O)c1O)CCNC(=O)c1cccc(O)c1O)c1cccc(O)c1O [TRENCAM]	4.4 µM (inactive)	11.5 µM (inactive)	8.55 µM (inactive)	6.49 µM (inactive)	51.9 µM (inactive)	4.2 µM (inactive)	5.15 µM (inactive)	7.87 µM (inactive)	16.7 µM (inactive)	> 56.1 µM (inactive)	19.5 µM (inactive)	15 µM (inactive)	10.4 µM	2.06 µM (inactive)	0.578 µM (active)	4.2 µM (inactive)	6.59 µM (inactive)	6.07 µM (inactive)	0.826 µM (active)	–
